Data from PubChem BioAssay AID602128 (The Scripps Research Institute Molecular Screening Center, 2011).
Active and inactive are the calls of the source. How the calls were made is not given here.

Target: Mucolipin-3 (Homo sapiens) (UniProt Q8TDD5)
Assay: human mucolipin-3 activators, concentration-response – cell-based, HEK293, calcium fluorescence, analogs, round 2, SAR follow-up (AID 602128)
Details: HEK293 TRPML3 cells

Sequence of Mucolipin-3 (Homo sapiens) (Q8TDD5 whole entry, looked up): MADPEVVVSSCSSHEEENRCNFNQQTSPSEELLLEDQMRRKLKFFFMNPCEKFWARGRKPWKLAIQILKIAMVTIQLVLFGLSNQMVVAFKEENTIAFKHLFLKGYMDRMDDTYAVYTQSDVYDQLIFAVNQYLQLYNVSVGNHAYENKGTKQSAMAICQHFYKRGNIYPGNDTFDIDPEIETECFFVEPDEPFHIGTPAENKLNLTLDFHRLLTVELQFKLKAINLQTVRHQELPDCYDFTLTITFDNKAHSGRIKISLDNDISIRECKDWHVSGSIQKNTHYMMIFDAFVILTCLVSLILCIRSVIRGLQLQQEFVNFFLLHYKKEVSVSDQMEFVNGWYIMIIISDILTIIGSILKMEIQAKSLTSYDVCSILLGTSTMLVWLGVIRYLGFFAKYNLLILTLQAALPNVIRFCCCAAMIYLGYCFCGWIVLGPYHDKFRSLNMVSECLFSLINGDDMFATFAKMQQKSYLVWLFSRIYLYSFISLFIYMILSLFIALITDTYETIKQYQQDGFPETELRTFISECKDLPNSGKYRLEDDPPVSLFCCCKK

| EC50 | Structure (SMILES) |
| --- | --- |
| > 29.9 µM (inactive) | Cc1ccc(S(=O)(=O)n2nccc2-c2c(-c3ccc(Cl)cc3)noc2C)cc1 |
| 0.291 µM | Cc1ccc(S(=O)(=O)n2ccc(-c3c(-c4ccc(Cl)cc4)noc3C)n2)cc1 |
